Patent publication US10294470B2, “Electronic expression of the inward rectifier in cardiocytes derived from human induced pluripotent stem cells” (The Research Foundation for The State University of New York, priority 2013, dated 2019)

System: h-iPSC-derived cardiac myocytes
Test: Current clamp action potential recording in paced h-iPSC-derived cardiac myocytes with and without electronic IK1
Format: cell-based, human
Settings: 1 μM; for effect on action potential duration (APD): paced cells with electronic expression of IK1,synthetic; for effect on action potential duration / repolarization / effect on spontaneous activity: paced cells without electronic IK1
Description: Commercially-available iPSC-derived cardiac myocytes (iCell Dynamics, WI), were prepared according to manufacturer's instructions. Briefly, ICELL® cardiac myocytes (cryopreserved single-cell suspensions in 1 ml cryovials) were stored in liquid nitrogen. Vials were thawed in a waterbath (37° C.). Cells were washed then rinsed with 1 ml of RT “ICELL® Cardiomyocyte Plating Medium.” An additional 8 ml of plating medium was added and cells mixed with solution by gentile inversion. Cardiocytes were seeded on 15 mm cover-slips coated with 0.01% (w/v) gelatin solution in 12-well plates. Cardiocytes were seeded (20,000-40,000/dish) in 2 ml of RT plating medium, permitting single cell culture, and incubated for 2+ days at 37° C., 7% CO2. Non adherent cells were removed by rinsing with “ICELL® Cardiomyocyte Maintenance Medium.” A further 2 ml of maintenance medium was added. Maintenance medium was changed every 2 days, and cells were used within 1 week.
iPSC-derived cardiocytes were voltage clamped. Currents were recorded using whole-cell clamp at RT. Cells in the recording chamber (300 μl) were continuously perfused with Tyrode. Pipettes fabricated from borosilicate glass (Flaming/Brown horizontal micropipette puller) and tips heat-polished (NARISHIGE® microforge). Pipettes contained (mM): 10 NaCl, 125 KCl, 1 MgSO4, 5 EGTA, 5 ATP (Mg salt), 5 Tris-creatinephosphate, 0.3 GTP, 10 HEPES, pH 7.2. Extracellular solution (mM): 150 NaCl, 5.4 KCl, 0.5 Na2HPO4, 1 MgCl2, 2 CaCl2), 10 glucose, 10 HEPES, pH7.4. After establishing a seal (1-10 Gohm), suction and voltage pulses were used to rupture the patch. Currents were recorded (Axopatch-1D, Molecular Dynamics, CA) and interfaced to a PENTIUM® 4 computer via a DIGIDATA® 1322A (Molecular Dynamics, CA). PCLAMP® 9.0 (Molecular Dynamics, CA) was used to control protocols and data acquisition.
We used an Analog and Digital I/O board PCIe-DAS1602/16 (Measurement Computing Corporation) installed on a on a DELL PRECISION® T7500 workstation with 2 INTEL® XEON® CPU E5520 to transfer the Vm signal to the signal of IK1 current. Source code is in the supplement.
Analysis was performed using PCLAMP® 9 (Molecular Dynamics). Action potential duration (APD) was computed for 50% (APD50) and 90% (APD90) of repolarization in ms. Maximum rate of rise of the AP upstroke was determined (dVm/dtmax) in mV/ms. Resting membrane potential was recorded prior to each AP. For spontaneous APs, the diastolic characteristics were reported for the period of time between complete AP repolarization and the beginning of depolarization in the subsequent AP. Duration, and minimum/mean potentials were computed for the diastolic period.
In order to overcome the lack of IK1 in h-iPSC-derived cardiac myocytes, we developed a variation of the dynamic clamp approach to inject a synthetic version of IK1 (FIG. 1). The center of the system is the isolated h-iPSC-derived cardiac myocyte under whole cell voltage or current clamp. Whole cell clamp is accomplished with a gigaseal under conventional current clamp mode. The membrane voltage of the cardiac myocyte is output from the amplifier and fed into a computer via a digitizer which calculates the inward rectifier current for the membrane potential, according to the equation shown in FIG. 1. The calculated value of IK1,Synthetic is passed through a potentiometer (used to adjust amplitude without sacrificing digital resolution) to scale IK1 and then summed with the standard stimulation input from PCLAMP®. A switch allows rapid changes between conventional current clamp and summed input. When the summed input is switched on, the myocyte receives the sum of two inputs: the standard AP stimulus current plus IK1,Synthetic from the real-time current simulator. The standard voltage clamp electronics can be driven via the summing circuit without modification of conventional voltage clamp and data recording with only minor software selection changes of input/output channels. […]

Structure (SMILES): COC(=O)C1=C(C)NC(C)=C([N+](=O)[O-])C1c1ccccc1C(F)(F)F (stereo not drawn) [BayK-8644]
- effect on action potential duration (APD): clear AP prolongation
- effect on action potential duration (APD) (listed as BayK8644): APD is prolonged
- effect on action potential duration / repolarization: not uniformly observed
- effect on spontaneous activity: termination of spontaneous full scale AP activity
- effect on action potential duration / repolarization (listed as BayK8644): severely shortened repolarization
- effect on spontaneous activity (listed as BayK8644): terminated spontaneous activity
- arrhythmogenic phenomenon of alternans (with IK1,synthetic): alternans is observed
- Ratio of APD90 with/without BayK8644 (with IK1,synthetic expression): major increase in APD
- Ratio of APD90 with/without BayK8644 (without IK1,synthetic expression): anomalous decrease in APD90
